In patent US9103790B2, “Linker for unimolecular FRET biosensor based on principle of fluorescence resonance energy transfer” (KYOTO UNIVERSITY, priority 2010, dated 2015):

Columns and labels:
[1] = system: EGF dependent-activation of ERK; test: Drug sensitivity test: FRET measurement of ERK activity in cell line stably expressing Eevee-ERK (3560 NES); format: cell-based, human; settings: HeLa cells stably expressing Eevee-ERK (3560 NES); serial-diluted inhibitors; 25 ng/mL EGF; after 30 min; average of 30 or more cells
Description: FIG. 18A illustrates results when HeLa cells stably expressing Eevee-ERK were seeded onto a 96-well plate, were added thereto serial-diluted inhibitors and stimulated with 25 ng/mL EGF. ERK activities were automatically measured for 30 or more cells, averaged, and plotted. FIG. 18A illustrates results of DMSO controls.
A mammalian cell expression plasmid containing the gene of Eevee-ERK (3560 NES) described in Example 3 was inserted into a plasmid having a transposon recognition sequence. This plasmid and a transposon expression vector was co-transfected as previously reported and screened for biosensor-expressing cell lines by blasticidin [Yusa, K., R. Rad, J. Takeda, and A. Bradley. 2009. Generation of transgene-free induced pluripotent mouse stem cells by the piggyBac transposon. Nat. Methods 6 (5)363-369].
Cultured cell lines were seeded onto a 96-well culture plate. Serial-diluted inhibitors were added thereto. The cell lines were stimulated with 25 ng/mL EGF. After 30 min, ERK activities were measured as described in Example 3 (see FIGS. 18A to 18H). The average ERK activities of 30 or more cells were plotted. The following inhibitors were used: EGF receptor inhibitors (AG1478), MEK inhibitors (PD15035, PD184351), BRAF inhibitors (PLX4720), phosphatidylinositol 3-phosphate kinase inhibitors (LY294002), RSK inhibitors (BI-D1870) and JNK inhibitors (JNK inhibitor VIII).

PKA = test: Drug sensitivity test with transgenic mouse expressing Eevee-PKA (3536 NES), two-photon FRET imaging of small intestine; format: in vivo; settings: intravenous injection; intermuscular nerve cell, intestinal smooth muscle, vascular smooth muscle
Excerpt: FIG. 19 illustrates results when the transgenic mouse expressing Eevee-PKA (3536 NES) was intravenously injected with theophylline, which is a phosphodiesterase inhibitor, and actosin, which is a cyclic adenosine triphosphate analog, and measured for PKA activities.
The transgenic mouse expressing Eevee-PKA (3536 NES) generated in Example 10 was anesthetized with isoflurane. A small intestine of the mouse was time-lapse imaged by an inverted two-photon microscope IX81/FV1000 (product of Olympus Corporation). Cells were excited at 840 nm with a titanium-sapphire laser system (Mai Tai Deep See HP; product of Spectra-Physics, Inc.). CFP fluorescence and YFP fluorescence were acquired using BA 460-500 fluorescence filter (product of Olympus Corporation) and BA 520-560 fluorescence filter (product of Olympus Corporation), respectively. FRET images were obtained in the same manner as in Example 3.
The transgenic mouse was intravenously injected with theophylline, which is a phosphodiesterase inhibitor, and actosin, which is a cyclic adenosine triphosphate analog, and measured for PKA activities.

SMILES | inhibition of EGF dependent-activation of ERK [1] | PKA activities (FRET) (PKA)
COc1cc2ncnc(Nc3cccc(Br)c3)c2cc1OC [PD153035] | effectively inhibited | –
Cn1c(=O)c2[nH]cnc2n(C)c1=O [theophylline] | – | Changes in PKA activities
O=C(NOCC1CC1)c1ccc(F)c(F)c1Nc1ccc(I)cc1Cl [PD184352] | effectively inhibited | –
CCCC(=O)Nc1ncnc2c1ncn2[C@@H]1O[C@@H]2COP(=O)([O-])O[C@H]2[C@H]1OC(=O)CCC.[Na+] [actosin] | – | Changes in PKA activities
COc1cc2ncnc(Nc3cccc(Cl)c3)c2cc1OC [AG1478] | effectively inhibited | –
